Assay results from patent US20260224602A1, “METHODS AND PHARMACEUTICAL COMPOSITIONS FOR TREATING DEMENTIA” (Neurxstem, priority 2023, published 2026).
Structures can show the parent of a compound that is named as a salt. Where two headings read alike, the source gives them in different places.

Columns and labels:
[1] = cited from earlier work
[2] = tested on: AD-NNOP-SPOR neural organoids; assay: CGS-21680 effect on gene expression in AD-NNOP-SPOR neural organoids (Ampliseq transcriptomics); type: cell-based, human
Method: (§1) Neural Organoids derived from induced pluripotent stem cells derived from adult skin cells of AD, ADRD or MED patients were grown in vitro for 4 weeks as previous described in U.S. Pat. No. 11,435,890, incorporated by reference in its entirety herein. Transcriptomic data from these neural organoids were obtained. Differences in expression of 20,814 genes expressed in the human genome were determined between these neural organoids and those from neural organoids from a normal individual human (an individual not having/diagnosed with AD, ADRD, or MED). Detailed data analysis using Gene Card and Pubmed data bases were performed.
(§2) Human induced pluripotent stem cell-derived neural organoids were generated according to the following protocol, as set forth in U.S. Pat. No. 11,435,890, incorporated by reference in its entirety herein. Briefly, irradiated murine embryonic fibroblasts (MEF) were plated on a gelatin coated substrate in MEF media (Dulbecco's Modified Eagle Medium (DMEM) supplemented with 10% Fetal Bovine Serum, 100 units/ml penicillin, 100 microgram/ml streptomycin, and 0.25 microgram/ml Fungizone) at a density of 2×10^5 cells per well. The seeded plate was incubated at 37° C. overnight.
In Table 1, the effect of A2A receptor agonist to reverse the aberrant expression of the biomarkers in AD disease was assessed. […] Log2 fold change with a positive value indicates a […] in expression of an AD-NNOP gene when compared to Normal-NNOP and a negative number indicates an increase in gene expression.

[3] = tested on: AD-NNOP-APP neural organoids; assay: PF-3845 effect on gene expression in AD-NNOP-APP neural organoids (Ampliseq transcriptomics); type: cell-based, human
Method: as §1, with “performed. […] These genes comprise a suite of biomarkers for Alzheimer's disease.” for “performed.”
as §2
It is known that FAAH inhibitor PF-3845 will raise endogenous levels of endocannabinoid anandamide receptor agonist anandamide. Consequently, PF-3845 treatment can increase endocannabinoid anandamide receptor activity despite dementia-associated downregulation. […] AD-NNOP-APP neural organoids were incubated with vehicle (0.1% DMSO; control) or PF-3845 dissolved in DMSO at 10 µM for 4 days and harvested for RNA extraction and gene expression analysis by Ampliseq™ (Thermofisher). Log2 fold change with a positive value indicates a […] in expression of an AD-NNOP gene when compared to Normal-NNOP and with a negative number an increase in gene expression. […] The expression of these genes were known to be increased in AD-NNOP-APP compared to normal (data not shown). Thus, PF-3845 or FAAH inhibitor was effective in reverting the biomarkers of AD to normalcy.

[4] = tested on: adenosine A2A receptor; details: Zochi et al., 1996, cited from earlier work
[5] = AD-NNOP-SPOR, CGS-21680 1 μM 4 days vs vehicle
[6] = AD-NNOP-APP >12 weeks in culture, PF-3845 10 µM 4 days vs vehicle (0.1% DMSO), positive = decrease in expression

CCNC(=O)[C@H]1O[C@@H](n2cnc3c(N)nc(NCCc4ccc(CCC(=O)O)cc4)nc32)[C@H](O)[C@@H]1O [CGS-21680, 2-p-(2-Carboxyethyl) phenethylamino-5′-N-ethylcarboxamidoadenosine hydrochloride hydrate]
solubility in 45% (w/v) aq 2-hydroxypropyl-β-cyclodextrin ([1]; 45% (w/v) aq 2-hydroxypropyl-β-cyclodextrin): ≤ 20 mg/mL
solubility in DMSO [1]: up to 3.4 mg/mL
effect on TBX3 expression ([2]; AD-NNOP SPOR, compared to control treatment): decreased TBX3 expression
effect on expression of abnormal AD genes [2, 5]: invert the expression of the abnormal genes in AD and revert them back to normalcy
number of differentially expressed genes vs control group [2, 5]: 2023 genes

O=C(Nc1cccnc1)N1CCC(Cc2cccc(Oc3ccc(C(F)(F)F)cn3)c2)CC1 [PF-3845]
effect on expression of measured AD biomarker genes ([3]; AD-NNOP APP, PF-3845 compared to control treatment): expression of the measured genes were decreased
ADM log2 Fold Change [3, 6]: 2.14
BGN log2 Fold Change [3, 6]: 2.50
CD36 log2 Fold Change [3, 6]: 2.86
MAP3K19 log2 Fold Change [3, 6]: 2.56
SLC16A3 log2 Fold Change [3, 6]: 2.05
number of differentially expressed genes vs control group ([3]; AD-NNOP-APP, PF-3845 10 µM 4 days vs vehicle): 2111 genes

CCNC(=O)[C@H]1O[C@@H](n2cnc3c(N)nc(C#CC[C@H]4CC[C@H](C(=O)OC)CC4)nc32)[C@H](O)[C@@H]1O [apadenoson, methyl (1R,4r)-4-(3-(6-amino-9-((2R,3R,4S,5S)-5-(ethylcarbamoyl)-3,4-dihydroxytetrahydrofuran-2-yl)-9H-purin-2-yl)prop-2-yn-1-yl)cyclohexane-1-carboxylate]
solubility in DMSO ([1]; MedKoo Biosciences): Soluble in DMSO
